Results: article PMC10484922, “Discovery of a selective and biologically active low-molecular weight antagonist of human interleukin-1β” (Nature Communications, 2023)
Several values for one entry are separate records, joined by “and”; a condition that tells them apart may be missing. Identical values can stand only once. Like-named read-outs stand apart in the source and are kept apart here.

How the values were obtained:
[1] = system: HEK-Blue IL-1β cells stimulated with hIL-1β; assay: HEK293 reporter gene assay, hIL-1β as trigger; format: cell-based, human; parameters: RGA HEK293, average / RGA HEK293, curve fit: unit not given here; settings: for RGA HEK293, average / RGA HEK293, curve fit: per experiment
Protocol: (§1) We used HEK-Blue™ IL-1β cells that respond specifically to IL-1 (# hkb-il1b, InvivoGen). These cells can detect IL-1α and IL-1β, as these cytokines bind to the same receptor, IL-1R1. They express a Seap reporter gene under the control of the IFN-β minimal promoter fused to five NF-kappaB and five AP-1 binding sites. Thirty microliters (300,000 cells/ml) per well of a 384-well plate were plated overnight. Cells were then stimulated with graded concentrations of cytokines (hIL-1α or hIL-1β) in the absence or presence of canakinumab (Ilaris®, ILARI LYVI 150MG 22GLW.012, batch U003 0409)[22], anakinra (Kineret®, 100 mg/0.67 ml injectable solution, Sobi)[23], or compound (S)-2 (compounds were pre-mixed for 1 h with the cytokine prior to addition to cells) and further incubated overnight before assessment of Seap activity.

[2] = system: HEK-Blue IL-1β cells stimulated with hIL-1α; assay: HEK293 reporter gene assay, hIL-1α as trigger; format: cell-based, human
Protocol: as §1

[3] = system: normal human dermal fibroblasts stimulated with hIL-1α; assay: Human fibroblast IL-6 release assay, hIL-1α stimulated; format: cell-based; parameters: IL-1alpha (mean, SD): mean readout (IL-6 release): unit not given here; settings: for Mean OD (OD 450nm) / IL-1alpha (mean, SD): mean readout (IL-6 release): Figure 3c; for Mean OD (OD 450nm): compound 500 nM; for IL-1alpha (mean, SD): mean readout (IL-6 release): compound @ 50uM
Protocol: as §1
Normal human dermal fibroblasts (NHDF) from Clonetics^TM (LONZA, Cat # CC-2509 (NHDF-Neo), Lot # 0000234242, used at passage ≤14) were seeded at a density of 5000 cells/well in 100 μL of culture medium using 96-well plates (flat bottom, TCT). Treatment with cytokines/compounds was performed as described above. Cells were incubated for another 6 h and were subsequently spun down (320g/3 min). IL-6 was measured in the supernatant by ELISA (BioLegend, # 430503) or HTRF (Cisbio, #62HIL06PEH).

[4] = system: CHO IL-1R1 reporter cell line stimulated with IL-1β; assay: NanoBiT reporter assay, CHO IL-1R1 cells, IL-1β driven; format: cell-based; parameters: average: scale not given here; settings: for average: IL-1beta
Protocol: Reporter cell system for NanoBiT assay
CHO IL-36R or CHO IL-1R1 reporter cell lines, prepared internally (Klemens Ka u p ma n n ), based on tagged IL-1RAcP and Myd88 proteins using the NanoBiT complementation system, were seeded at a densi ty of 10’000 cells/well in 30 µL of OptiMEM + 0.1 % FCS medium using 384-well plates (white, TCT), for 24 hours.
Before the treatment, the medium was removed, 20 µL of NanoGlo substrate, (#N2012, Pr o me g a ) were added to the wells. Following substrate addi ti on, 240 nL of compound were added to the wells using an ECH O dispenser device. Then, 3.76 µL of the ligand IL-36g (Novartis) at 200 ng/mL end concentration or recombinant IL-1b (Novartis) at 500 pg/mL end concentration were added to the mix. Luminescence was measured at 405 nm after 30 min incubation (Pherastar reader). […]

`Cc1ccc2c(c1)NC(=O)[C@@]2(c1cn[nH]c1)c1cc(-c2ccc(C(=O)O)cc2C(=O)O)ccc1O` [Compound (S)-2] was tested, and the “reporter activity induced by hIL-1β” value [1] was “efficiently inhibited the reporter activity induced by hIL-1β”, the “RGA HEK293, average” value ([1]; 3.125 uM) was 29.4705 and 28.9635 and 25.1151 and 32.9049 and 27.4138 and 39.0499 and 38.2996 and 37.0235 and the “RGA HEK293, curve fit” value ([1]; 3.125 uM) was 30.4654 and 27.1823 and 20.8299 and 28.629 and 26.4966 and 33.5898 and 33.5814 and 32.8647. The “RGA HEK293, average” value ([1]; 6.25 uM) was 54.0943 and 50.2167 and 45.7315 and 52.6564 and 46.7509 and 54.9517 and 53.8737 and 52.9197, the “RGA HEK293, curve fit” value ([1]; 6.25 uM) was 53.4932 and 49.1303 and 45.443 and 53.6627 and 46.4685 and 55.6955 and 53.7771 and 53.2389 and the “RGA HEK293, average” value ([1]; 12.5 uM) was 72.3524 and 70.9823 and 68.0128 and 77.9349 and 67.4822 and 74.7182 and 71.0369 and 70.438. The “RGA HEK293, curve fit” value ([1]; 12.5 uM) was 72.9412 and 71.3657 and 68.2903 and 76.9195 and 67.593 and 75.1363 and 72.2128 and 71.5012, the “RGA HEK293, average” value ([1]; 25 uM) was 87.2975 and 85.2654 and 82.5363 and 87.9606 and 82.8729 and 86.3527 and 84.3067 and 83.9822 and the “RGA HEK293, curve fit” value ([1]; 25 uM) was 85.8483 and 86.5666 and 83.9461 and 90.5811 and 83.387 and 87.7879 and 85.1743 and 84.4134. For the same molecule, the “RGA HEK293, average” value ([1]; 50 uM) was 94.5457 and 94.2398 and 91.9589 and 95.03 and 93.0282 and 93.3172 and 89.9086 and 89.6999, the “RGA HEK293, curve fit” value ([1]; 50 uM) was 93.0784 and 94.3616 and 92.5512 and 96.5403 and 92.3805 and 94.467 and 92.6851 and 92.0672 and the “RGA HEK293, average” value ([1]; 100 uM) was 97.772 and 97.6887 and 95.147 and 97.9006 and 96.9482 and 94.6055 and 95.59 and 95.4988. For the same molecule, the “RGA HEK293, curve fit” value ([1]; 100 uM) was 96.7406 and 97.7627 and 96.7045 and 98.7877 and 96.7132 and 97.5984 and 96.5496 and 96.1302, the IC50 ([1]; Homo sapiens, hIL-1β, read-out: RGA HEK293 IC50) was 5.3 ± 0.3 µM and the IC50 ([1]; Homo sapiens, source data, read-out: RGA HEK293 IC50, individual experiments) was 4.15 µM. For the same molecule, the IC50 ([1]; source data, read-out: RGA HEK293 IC50, individual experiments) was 6.4 µM and 5.37 µM and 5.67 µM and 6.98 µM and 4.84 µM and 5.05 µM and 4.72 µM, the “reporter activity with hIL-1α as trigger” value [2] was “ineffective” and the “effect on hIL-1α driven IL-6 release” value [3] was “had no effect on hIL-1α driven IL-6 release”. The “Mean OD (OD 450nm)” value ([3]; hu IL-1A 0 pg/mL) was 0.031, the “Mean OD (OD 450nm)” value ([3]; hu IL-1A 40 pg/mL) was 0.372 and the “Mean OD (OD 450nm)” value ([3]; hu IL-1A 80 pg/mL) was 0.573. The “Mean OD (OD 450nm)” value ([3]; hu IL-1A 120 pg/mL) was 0.693, the “Mean OD (OD 450nm)” value ([3]; hu IL-1A 160 pg/mL) was 0.736 and the “Mean OD (OD 450nm)” value ([3]; hu IL-1A 200 pg/mL) was 0.751. For the same molecule, the “IL-1alpha (mean, SD): mean readout (IL-6 release)” value (shortened to “IL-1alpha (mean, SD): mean readout”) ([3]; hu IL-1a 0 pg/mL) was 0, the “IL-1alpha (mean, SD): mean readout” value ([3]; hu IL-1a 40 pg/mL) was 1994.8 and the “IL-1alpha (mean, SD): mean readout” value ([3]; hu IL-1a 80 pg/mL) was 3486.9. The “IL-1alpha (mean, SD): mean readout” value ([3]; hu IL-1a 120 pg/mL) was 4374.4, the “IL-1alpha (mean, SD): mean readout” value ([3]; hu IL-1a 160 pg/mL) was 4691.2 and the “IL-1alpha (mean, SD): mean readout” value ([3]; hu IL-1a 200 pg/mL) was 4802.2. The “IL-1β-driven NanoBiT reporter activity” value [4] was “inhibited the reporter activity driven”, the average ([4]; EXP1, conc 0.00610352 uM) was -2.539 and the average ([4]; EXP1, conc 0.012207 uM) was 1.596. It also gave an average ([4]; EXP1, conc 0.0244141 uM) of -3.451, an average ([4]; EXP1, conc 0.0488281 uM) of 3.112 and an average ([4]; EXP1, conc 0.0976562 uM) of 2.615. For the same molecule, the average ([4]; EXP1, conc 0.195312 uM) was -0.4746, the average ([4]; EXP1, conc 0.390625 uM) was 9.543 and the average ([4]; EXP1, conc 0.78125 uM) was 7.593. The average ([4]; EXP1, conc 1.5625 uM) was 13.469, the average ([4]; EXP1, conc 3.125 uM) was 26.7566 and the average ([4]; EXP1, conc 6.25 uM) was 37.1219. It also gave an average ([4]; EXP1, conc 12.5 uM) of 46.91, an average ([4]; EXP1, conc 25 uM) of 52.2595 and an average ([4]; EXP1, conc 50 uM) of 56.8016. The average ([4]; EXP1, conc 100 uM) was 68.8694, the average ([4]; EXP2, conc 0.00610352 uM) was -2.716 and the average ([4]; EXP2, conc 0.012207 uM) was 3.9057. The average ([4]; EXP2, conc 0.0244141 uM) was -3.335, the average ([4]; EXP2, conc 0.0488281 uM) was 6.501 and the average ([4]; EXP2, conc 0.0976562 uM) was 5.016. The average ([4]; EXP2, conc 0.195312 uM) was 1.522, the average ([4]; EXP2, conc 0.390625 uM) was 11.9124 and the average ([4]; EXP2, conc 0.78125 uM) was 10.8854. For the same molecule, the average ([4]; EXP2, conc 1.5625 uM) was 17.5198, the average ([4]; EXP2, conc 3.125 uM) was 31.5581 and the average ([4]; EXP2, conc 6.25 uM) was 41.289. The average ([4]; EXP2, conc 12.5 uM) was 51.7241, the average ([4]; EXP2, conc 25 uM) was 56.0031 and the average ([4]; EXP2, conc 50 uM) was 59.3287. For the same molecule, the average ([4]; EXP2, conc 100 uM) was 71.2739, the average ([4]; EXP3, conc 0.00610352 uM) was 1.19 and the average ([4]; EXP3, conc 0.012207 uM) was 3.77. It also gave an average ([4]; EXP3, conc 0.0244141 uM) of 3.912, an average ([4]; EXP3, conc 0.0488281 uM) of 4.68 and an average ([4]; EXP3, conc 0.0976562 uM) of -1.021. It also gave an average ([4]; EXP3, conc 0.195312 uM) of 3.354, an average ([4]; EXP3, conc 0.390625 uM) of 4.389 and an average ([4]; EXP3, conc 0.78125 uM) of 9.349. It also gave an average ([4]; EXP3, conc 1.5625 uM) of 13.3994, an average ([4]; EXP3, conc 3.125 uM) of 22.0107 and an average ([4]; EXP3, conc 6.25 uM) of 30.3621. It also gave an average ([4]; EXP3, conc 12.5 uM) of 43.476, an average ([4]; EXP3, conc 25 uM) of 49.8685 and an average ([4]; EXP3, conc 50 uM) of 57.8931. The average ([4]; EXP3, conc 100 uM) was 64.0514.
